{"source": "paper PMC8308585", "about": "“Design and Synthesis of Novel Thiazolo[5,4-d]pyrimidine Derivatives with High Affinity for Both the Adenosine A1 and A2A Receptors, and Efficacy in Animal Models of Depression” (Pharmaceuticals, 2021)", "key": {"human A2A AR": {"biological_target": "T1, human A2A AR (Homo sapiens, UniProt P29274)", "T1 construct": "expressed in transfected cells; host or cells: CHO cells", "T1 sequence (P29274 whole entry)": "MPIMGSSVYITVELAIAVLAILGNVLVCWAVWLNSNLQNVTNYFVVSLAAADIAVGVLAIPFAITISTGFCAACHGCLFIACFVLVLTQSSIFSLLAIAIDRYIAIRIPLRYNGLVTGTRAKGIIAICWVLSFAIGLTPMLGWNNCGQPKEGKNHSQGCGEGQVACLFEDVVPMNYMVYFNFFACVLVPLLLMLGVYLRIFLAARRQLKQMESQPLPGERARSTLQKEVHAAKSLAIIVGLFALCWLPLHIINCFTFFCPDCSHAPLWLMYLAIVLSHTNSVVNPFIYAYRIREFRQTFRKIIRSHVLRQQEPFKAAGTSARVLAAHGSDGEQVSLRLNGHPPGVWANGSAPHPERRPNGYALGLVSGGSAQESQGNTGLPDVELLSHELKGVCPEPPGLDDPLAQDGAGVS", "assay": "Radioligand binding, displacement of [3H]-NECA at hA2A AR in CHO cells", "method": "(§2) CHO cells, stably expressing hARs, were grown adherently and maintained in Dulbecco’s modified Eagle’s medium (DMEM) with nutrient mixture F12 supplemented with 10% fetal bovine serum (FBS), penicillin (100 µg/mL), streptomycin (100 µg/mL), sodium pyruvate (1 mM), and geneticin (0.1 mg/mL).\n(§3) Briefly, cells were homogenized in cold lysis buffer (5 mM Tris HCl, 2 mM EDTA, pH 7.4), centrifuged at low speed spin for 10 min, and subsequently, the supernatant was spun at 37,000 rpm. Membrane pellet was resuspended in the specific buffer and stored at −80 °C.\n(§4) The binding affinity of the novel compounds was evaluated using radioligand competition experiments in CHO cells stably transfected with hA1 AR, hA2A AR, and hA3 AR subtypes."}, "mice [1]": {"tested_on": "mice", "assay": "Tail suspension test", "format": "in vivo", "conditions": "mouse TST, single dose, mean ± SEM of 10 mice, vehicle 99.0 ± 6.8", "procedure": "(§1) To execute the tests, mice were divided into groups, each of which consisted of 10 animals. The tests were performed after a single p.o. administration of compound 18 at different dosages (10 mg Kg^−1 and 30 mg Kg^−1). Amitriptyline (15 mg Kg^−1) was used as the reference drug. Compounds were acutely administrated 26 min before the beginning of the experiment. In the FST (Table 4), the duration of immobility was recorded during the last 4 min of the 6 min test.\nA decrease in the duration of immobility is indicative of an antidepressant-like effect. […] Accordingly, a similar activity was shown in the tail suspension test (Table 5) where the immobility time was measured in the first 2 min, when animals react to the inescapable stress, and in the last 4 min of the test, when the behavioral despair is established. Immobility was defined as the absence of any limb or body movements, except those caused by respiration. A reduction in the duration of the immobility time is indicative of an antidepressant-like effect.\nMale CD-1 albino mice (22–25 g; Envigo, Varese, Italy) were housed in CeSAL (Centro Stabulazione Animali da Laboratorio, University of Florence, Florence, Italy) and used at least one week after their arrival. Animals were housed in 26 cm × 41 cm cages (12 mice each) and fed with a standard laboratory diet and tap water ad libitum. They were kept at 23 ± 1 °C with a 12 h light/dark cycle, light at 7 a.m. […]\nA piece of tape was adhered to the upper middle of the tail of each animal, creating a flap with the overlap of tape. […] The duration of the test was 6 min and the immobility time was measured in the first 2 min, when animals react to the inescapable stress, and in the last 4 min of the test, when the behavioral despair is established. […]\nBehavioral tests were performed by visual observation by researchers blinded to the treatments. Results were expressed as means ± SEM, variance was analyzed by ANOVA. […] Data were analyzed using the “Origin 8.1” software."}, "human A1 AR": {"biological_target": "T2, human A1 AR (Homo sapiens, UniProt P30542)", "T2 construct": "expressed in transfected cells; host or cells: CHO cells", "T2 sequence (P30542 1-326)": "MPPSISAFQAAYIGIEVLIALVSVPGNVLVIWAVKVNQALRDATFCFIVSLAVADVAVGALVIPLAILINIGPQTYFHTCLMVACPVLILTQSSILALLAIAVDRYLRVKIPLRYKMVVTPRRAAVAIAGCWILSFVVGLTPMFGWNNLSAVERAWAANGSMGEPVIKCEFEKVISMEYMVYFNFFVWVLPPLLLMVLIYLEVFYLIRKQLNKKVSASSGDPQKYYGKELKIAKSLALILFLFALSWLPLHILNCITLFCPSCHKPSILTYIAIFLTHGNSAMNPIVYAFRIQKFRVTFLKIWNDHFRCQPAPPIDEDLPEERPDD", "assay": "Radioligand binding, displacement of [3H]-CCPA at hA1 AR in CHO cells", "conditions": "displacement of specific [3H]-CCPA binding, n = 3–6, mean ± SEM", "method": "as §2, §3, §4"}, "mice [2]": {"tested_on": "mice", "assay": "Forced swimming test", "format": "in vivo, mouse", "conditions": "for Immobility Time: mouse FST, single dose 26 min before test, last 4 min of 6 min, mean ± SEM of 10 mice, vehicle 193.7 ± 8.9", "procedure": "as §1\nMale CD-1 albino mice (22–25 g; Envigo, Varese, Italy) were housed in CeSAL (Centro Stabulazione Animali da Laboratorio, University of Florence, Florence, Italy) and used at least one week after their arrival. Animals were housed in 26 cm × 41 cm cages (12 mice each) and fed with a standard laboratory diet and tap water ad libitum. They were kept at 23 ± 1 °C with a 12 h light/dark cycle, light at 7 a.m. Compound 18 was administered per o.s. whereas amitriptyline was by a s.c. route following the most widely used approach reported in the literature.\nMice were individually placed into glass cylinders (height: 25 cm, diameter: 10 cm) containing 12 cm of water maintained at 22–23 °C for 6 min. Immobility was considered the animal floated in the water, in an upright position, and made only small movements to keep its head above water. The immobility time was recorded during the last 4-min of the 6-min test. A decrease in the duration of immobility is indicative of an antidepressant-like effect.\nBehavioral tests were performed by visual observation by researchers blinded to the treatments. Results were expressed as means ± SEM, variance was analyzed by ANOVA. A Bonferroni’s significant difference procedure was used as post-hoc comparison. p values of less than 0.05 and 0.01 were considered significant. Data were analyzed using the “Origin 8.1” software."}, "hA2A AR": {"biological_target": "T3, hA2A AR (Homo sapiens, UniProt P29274)", "T3 construct": "expressed in transfected cells; host or cells: CHO cells", "T3 sequence (P29274 whole entry)": "as the sequence (P29274 whole entry) above", "assay": "Inhibition of NECA-induced increase of cAMP in CHO cells expressing hA2A AR (GloSensor cAMP assay)", "format": "cell-based", "conditions": "inhibition of NECA-stimulated adenylyl cyclase activity, mean ± standard error", "procedure": "Compound 18 was also tested to evaluate its antagonist behavior at the hA1 AR by assessing its ability to counteract NECA-induced decrease of cAMP accumulation.\nThe intrinsic activity of understudy compounds was evaluated through the GloSensor cAMP assay, as described previously. Briefly, cells stably expressing the hA1, hA2A, and hA2B ARs and the biosensor were incubated for 2 h at rt in equilibration medium containing 3% v/v GloSensor cAMP reagent stock solution, 10% FBS, and 87% CO2 independent medium. Afterward, cells were dispensed in the wells of a 384-well plate and the reference agonist NECA or the compounds, at different concentrations, were tested. The antagonist profile of compounds was evaluated by assessing their ability to counteract NECA-induced increase (A2A and A2B ARs) or decrease (A1 AR) of cAMP accumulation. Responses were expressed as percentage of the maximal relative luminescence units (RLU).\nBinding data and concentration–response curves were fitted by a nonlinear regression with the Prism program (GraphPAD Prism 7 Software, San Diego, CA, USA). Each concentration was tested 3–5 times in duplicate and the Ki or IC50 (the concentration of antagonists that produces 50% inhibition of the agonist effect) values are given as the mean ± standard error (S.E.)."}}, "note": "Read-outs that look alike come from different tables or passages of the source.", "data": [{"smiles": "Nc1nc(-c2ccco2)nc2sc(Cc3ccccc3F)nc12", "note": "[compound 18, 2-(2-Fluorobenzyl)-5-(furan-2-yl)thiazolo[5,4-d]pyrimidin-7-amine]", "values": [{"measurement": "Ki", "setting": "human A2A AR; displacement of specific [3H]-NECA binding, CHO cells, mean ± SEM, read-out: hA2A Ki", "value": "0.06 ± 0.02", "unit": "nM"}, {"measurement": "Ki", "setting": "human A2A AR; hA2A AR, as listed in Table 3, read-out: pKi A2A (converted)", "value": 0.0646, "unit": "nM"}, {"measurement": "Immobility Time", "setting": "mice [1]; 10 mg kg^−1 p.o.", "value": "88.9 ± 10.16", "unit": "s"}, {"measurement": "Immobility Time", "setting": "mice [1]; 30 mg kg^−1 p.o.", "value": "56.5 ± 6.1", "unit": "s"}, {"measurement": "Ki", "setting": "human A1 AR", "value": "1.9 ± 0.08", "unit": "nM"}, {"measurement": "Immobility Time", "setting": "mice [2]; 10 mg kg^−1 p.o.", "value": "184.7 ± 5.6", "unit": "s"}, {"measurement": "Immobility Time", "setting": "mice [2]; 30 mg kg^−1 p.o.", "value": "143.5 ± 9.1", "unit": "s"}, {"measurement": "Antidepressant-like effect in FST (in words)", "setting": "mice [2]; mouse, 10 and 30 mg Kg^−1 p.o., vs amitriptyline 15 mg Kg^−1", "value": "dose-dependently induced an antidepressant-like effect comparable to that induced by the clinically used drug amitriptyline"}, {"measurement": "IC50", "setting": "hA2A AR", "value": "14 ± 3.4", "unit": "nM"}]}]}
